# Bridge positions count the residues as written; N and C are the ends. Square brackets hold non-standard residues; d marks the D form. Peptide text beside a SMILES is read from it. * marks the point of attachment. Phe(4-CH2CH2COOH) = N[C@@H](Cc1ccc(CCC(=O)O)cc1)C(=O)O; Trp(βS-Me) = C[C@@H](c1c[nH]c2ccccc12)[C@H](N)C(=O)O; Bip = N[C@@H](Cc1ccc(-c2ccccc2)cc1)C(=O)O; Phe(3-Me) = Cc1cccc(C[C@H](N)C(=O)O)c1; His(π-Me) = Cn1cncc1C[C@H](N)C(=O)O; Val(3-OH) = CC(C)(O)[C@H](N)C(=O)O; Cha = N[C@@H](CC1CCCCC1)C(=O)O; Cit = NC(=O)NCCC[C@H](N)C(=O)O; Carboxymethyl = O=C(O)C*; Orn = NCCC[C@H](N)C(=O)O; Aun = NCCCCCCCCCCC(=O)O; Dab = NCC[C@H](N)C(=O)O; Ac3c = NC1(C(=O)O)CC1
# Target: T1, PD-1/PD-L1 interaction (PE-labeled human PD-L1-Ig binding to Jurkat cell line over-expressing human PD-1) (Homo sapiens, UniProt Q15116)
# T1 construct: expressed in transfected cells; host or cells: Jurkat
# T1 sequence (Q15116 25-288): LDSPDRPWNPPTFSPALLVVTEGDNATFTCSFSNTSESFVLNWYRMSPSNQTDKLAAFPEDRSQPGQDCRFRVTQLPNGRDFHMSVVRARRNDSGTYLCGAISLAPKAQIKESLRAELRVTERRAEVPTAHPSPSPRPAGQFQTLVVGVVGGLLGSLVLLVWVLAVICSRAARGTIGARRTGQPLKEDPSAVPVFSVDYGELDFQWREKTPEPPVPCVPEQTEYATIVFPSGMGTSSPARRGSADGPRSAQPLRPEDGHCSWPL
# Assay: Jurkat-PD-1 Cell Binding High-Content Screening Assay (CBA)
# Format: cell-based
# Details: Jurkat cell line over-expressing human PD-1; PE-labeled PD-L1-Ig 20 nM final; read-out: Jurkat hPD1-PDL1 IC50
# Outline: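 Jurkat cells stably over-expressing human PD-1 were seeded in DMEM with 10% fetal calf serum and pre-incubated with compound for 2 h at 37° C. PE-labeled human PD-L1-Ig was then added at 20 nM final for 1 hour, after which cells were fixed with paraformaldehyde, Hoechst-stained and imaged by high-content microscopy.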
row,IC50 [nM],SMILES
1,15.7,Cc1cccc(C[C@@H]2NC(=O)[C@H](CC(=O)O)NC(=O)[C@H](Cc3ccc(OCC(=O)O)cc3)NC(=O)[C@H](CCCNC(=N)N)NC(=O)CSC[C@@H](C(=O)N[C@@H](CCN)C(=O)NCCCCCCCCCCC(=O)O)NC(=O)[C@H]([C@@H](C)O)NC(=O)[C@H](C(C)C)NC(=O)[C@H](CC3CCCCC3)NC(=O)[C@H](CCN)NC(=O)[C@@H](CC(C)C)NC(=O)[C@H](CCCN)NC(=O)[C@H](Cc3ccc(O)cc3)NC(=O)[C@H](Cc3ccc(-c4ccccc4)cc3)NC(=O)[C@H](Cc3ccc(OCC(=O)O)cc3)NC2=O)c1 [Compound 2130] ({CH2CO}-RY(Carboxymethyl)D[Phe(3-Me)]Y(Carboxymethyl)[Bip]Y[Orn][dL][Dab][Cha]VTC[Dab][Aun]-OH; thioether N-14)
2,5.8,Cc1cccc(C[C@@H]2NC(=O)[C@H](CC(=O)O)NC(=O)[C@H](Cc3ccc(OCC(=O)O)cc3)NC(=O)[C@H](CCCNC(=N)N)NC(=O)CSC[C@@H](C(=O)N[C@@H](CCN)C(=O)NCCCCCCCCCCC(=O)O)NC(=O)[C@H](CCC(N)=O)NC(=O)[C@H](C(C)C)NC(=O)[C@H](CC3CCCCC3)NC(=O)[C@H](CCN)NC(=O)[C@@H](CC(C)C)NC(=O)[C@H](CCCN)NC(=O)[C@H](Cc3ccc(O)cc3)NC(=O)[C@H](Cc3ccc(-c4ccccc4)cc3)NC(=O)[C@H](Cc3ccc(CCC(=O)O)cc3)NC2=O)c1 [Compound 2131] ({CH2CO}-RY(Carboxymethyl)D[Phe(3-Me)][Phe(4-CH2CH2COOH)][Bip]Y[Orn][dL][Dab][Cha]VQC[Dab][Aun]-OH; thioether N-14)
3,11.5,Cc1cccc(C[C@@H]2NC(=O)[C@H](CC(=O)O)NC(=O)[C@H](Cc3ccc(OCC(=O)O)cc3)NC(=O)[C@H](CCCNC(=N)N)NC(=O)CSC[C@@H](C(=O)NC3(C(=O)NCCCCCCCCCCC(=O)O)CC3)NC(=O)[C@H]([C@@H](C)O)NC(=O)[C@H](C(C)C)NC(=O)[C@H](CC3CCCCC3)NC(=O)[C@H](CCN)NC(=O)[C@@H](CC(C)C)NC(=O)[C@H](CCCN)NC(=O)[C@H](Cc3ccc(OCC(=O)O)cc3)NC(=O)[C@H](Cc3ccc(-c4ccccc4)cc3)NC(=O)[C@H](Cc3ccc(CCC(=O)O)cc3)NC2=O)c1 [Compound 2132] ({CH2CO}-RY(Carboxymethyl)D[Phe(3-Me)][Phe(4-CH2CH2COOH)][Bip]Y(Carboxymethyl)[Orn][dL][Dab][Cha]VTC[Ac3c][Aun]-OH; thioether N-14)
4,58.8,CC(C)C[C@H]1NC(=O)[C@H](CCCN)NC(=O)[C@H](Cc2ccc(O)cc2)NC(=O)[C@H](Cc2ccc(-c3ccccc3)cc2)NC(=O)[C@H](C(C)C)NC(=O)[C@H]([C@@H](C)c2c[nH]c3ccccc23)NC(=O)[C@H](CC(=O)O)NC(=O)[C@H](Cc2ccc(OCC(=O)O)cc2)NC(=O)[C@H](CCCNC(=N)N)NC(=O)CSC[C@@H](C(=O)NC2(C(=O)NCCCCCCCCCCC(=O)O)CC2)NC(=O)[C@H]([C@@H](C)O)NC(=O)[C@H](C(C)C)NC(=O)[C@H](CC2CCCCC2)NC(=O)[C@H](CCN)NC1=O [Compound 2133] ({CH2CO}-RY(Carboxymethyl)D[Trp(βS-Me)]V[Bip]Y[Orn][dL][Dab][Cha]VTC[Ac3c][Aun]-OH; thioether N-14)
5,38.5,CC(C)C[C@H]1NC(=O)[C@H](CCCN)NC(=O)[C@H](CCCNC(N)=O)NC(=O)[C@H](Cc2ccc(-c3ccccc3)cc2)NC(=O)[C@H](C(C)C)NC(=O)[C@H]([C@@H](C)c2c[nH]c3ccccc23)NC(=O)[C@H](CC(=O)O)NC(=O)[C@H](Cc2ccc(OCC(=O)O)cc2)NC(=O)[C@H](CCCNC(=N)N)NC(=O)CSC[C@@H](C(=O)NC2(C(=O)NCCCCCCCCCCC(=O)O)CC2)NC(=O)[C@H]([C@@H](C)O)NC(=O)[C@H](C(C)C)NC(=O)[C@H](CC2CCCCC2)NC(=O)[C@H](CCN)NC1=O [Compound 2134] ({CH2CO}-RY(Carboxymethyl)D[Trp(βS-Me)]V[Bip][Cit][Orn][dL][Dab][Cha]VTC[Ac3c][Aun]-OH; thioether N-14)
6,68.8,CC(C)C[C@H]1NC(=O)[C@H](CCCN)NC(=O)[C@H](Cc2ccc(OCC(=O)O)cc2)NC(=O)[C@H](Cc2ccc(-c3ccccc3)cc2)NC(=O)[C@H](Cc2ccc(OCC(=O)O)cc2)NC(=O)[C@H]([C@@H](C)c2c[nH]c3ccccc23)NC(=O)[C@H](CC(=O)O)NC(=O)[C@H](Cc2ccc(OCC(=O)O)cc2)NC(=O)[C@H](CCCNC(=N)N)NC(=O)CSC[C@@H](C(=O)NC2(C(=O)NCCCCCCCCCCC(=O)O)CC2)NC(=O)[C@H]([C@@H](C)O)NC(=O)[C@H](C(C)C)NC(=O)[C@H](CC2CCCCC2)NC(=O)[C@H](CCN)NC1=O [Compound 2135] ({CH2CO}-RY(Carboxymethyl)D[Trp(βS-Me)]Y(Carboxymethyl)[Bip]Y(Carboxymethyl)[Orn][dL][Dab][Cha]VTC[Ac3c][Aun]-OH; thioether N-14)
7,3.1,Cc1cccc(C[C@@H]2NC(=O)[C@H](CC(=O)O)NC(=O)[C@H](Cc3ccc(OCC(=O)O)cc3)NC(=O)[C@H](CCCNC(=N)N)NC(=O)CSC[C@@H](C(=O)NC3(C(=O)NCCCCCCCCCCC(=O)O)CC3)NC(=O)[C@H](CCCN)NC(=O)[C@H](C(C)C)NC(=O)[C@H](CC3CCCCC3)NC(=O)[C@H](CCN)NC(=O)[C@@H](CC(C)C)NC(=O)[C@H](CCCN)NC(=O)[C@H](Cc3ccc(OCC(=O)O)cc3)NC(=O)[C@H](Cc3ccc(-c4ccccc4)cc3)NC(=O)[C@H](Cc3ccc(OCC(=O)O)cc3)NC2=O)c1 [Compound 2136] ({CH2CO}-RY(Carboxymethyl)D[Phe(3-Me)]Y(Carboxymethyl)[Bip]Y(Carboxymethyl)[Orn][dL][Dab][Cha]V[Orn]C[Ac3c][Aun]-OH; thioether N-14)
8,9.1,Cc1cccc(C[C@@H]2NC(=O)[C@H](CC(=O)O)NC(=O)[C@H](Cc3ccc(OCC(=O)O)cc3)NC(=O)[C@H](CCCNC(=N)N)NC(=O)CSC[C@@H](C(=O)NC3(C(=O)NCCCCCCCCCCC(=O)O)CC3)NC(=O)[C@H](CCC(N)=O)NC(=O)[C@H](C(C)C)NC(=O)[C@H](CC3CCCCC3)NC(=O)[C@H](CCN)NC(=O)[C@@H](CC(C)C)NC(=O)[C@H](CCCN)NC(=O)[C@H](Cc3ccc(OCC(=O)O)cc3)NC(=O)[C@H](Cc3ccc(-c4ccccc4)cc3)NC(=O)[C@H](Cc3ccc(OCC(=O)O)cc3)NC2=O)c1 [Compound 2137] ({CH2CO}-RY(Carboxymethyl)D[Phe(3-Me)]Y(Carboxymethyl)[Bip]Y(Carboxymethyl)[Orn][dL][Dab][Cha]VQC[Ac3c][Aun]-OH; thioether N-14)
9,109,CC(C)C[C@H]1NC(=O)[C@H](CCCN)NC(=O)[C@H](Cc2ccc(OCC(=O)O)cc2)NC(=O)[C@H](Cc2ccc(-c3ccccc3)cc2)NC(=O)[C@H](Cc2ccc(OCC(=O)O)cc2)NC(=O)[C@H]([C@@H](C)c2c[nH]c3ccccc23)NC(=O)[C@H](CC(=O)O)NC(=O)[C@H](Cc2ccc(OCC(=O)O)cc2)NC(=O)[C@H](CCCNC(=N)N)NC(=O)CSC[C@@H](C(=O)N[C@@H](CCN)C(=O)NCCCCCCCCCCC(=O)O)NC(=O)[C@H]([C@@H](C)O)NC(=O)[C@H](C(C)C)NC(=O)[C@H](CC2CCCCC2)NC(=O)[C@H](CCN)NC1=O [Compound 2138] ({CH2CO}-RY(Carboxymethyl)D[Trp(βS-Me)]Y(Carboxymethyl)[Bip]Y(Carboxymethyl)[Orn][dL][Dab][Cha]VTC[Dab][Aun]-OH; thioether N-14)
10,21.1,Cc1cccc(C[C@@H]2NC(=O)[C@H](CC(=O)O)NC(=O)[C@H](Cc3ccc(OCC(=O)O)cc3)NC(=O)[C@H](CCCNC(=N)N)NC(=O)CSC[C@@H](C(=O)N[C@@H](CCN)C(=O)NCCCCCCCCCCC(=O)O)NC(=O)[C@H]([C@@H](C)O)NC(=O)[C@H](C(C)C)NC(=O)[C@H](CC3CCCCC3)NC(=O)[C@H](CCN)NC(=O)[C@@H](CC(C)C)NC(=O)[C@H](C)NC(=O)[C@H](C(C)(C)O)NC(=O)[C@H](Cc3ccc(-c4ccccc4)cc3)NC(=O)[C@H](Cc3ccc(OCC(=O)O)cc3)NC2=O)c1 [Compound 2139] ({CH2CO}-RY(Carboxymethyl)D[Phe(3-Me)]Y(Carboxymethyl)[Bip][Val(3-OH)]A[dL][Dab][Cha]VTC[Dab][Aun]-OH; thioether N-14)
11,11.6,Cc1cccc(C[C@@H]2NC(=O)[C@H](CC(=O)O)NC(=O)[C@H](Cc3ccc(OCC(=O)O)cc3)NC(=O)[C@H](CCCNC(=N)N)NC(=O)CSC[C@@H](C(=O)N[C@@H](CCN)C(=O)NCCCCCCCCCCC(=O)O)NC(=O)[C@H](CCC(N)=O)NC(=O)[C@H](C(C)C)NC(=O)[C@H](CC3CCCCC3)NC(=O)[C@H](CCN)NC(=O)[C@@H](CC(C)C)NC(=O)[C@H](CCCN)NC(=O)[C@H](C(C)(C)O)NC(=O)[C@H](Cc3ccc(-c4ccccc4)cc3)NC(=O)[C@H](Cc3ccc(OCC(=O)O)cc3)NC2=O)c1 [Compound 2140] ({CH2CO}-RY(Carboxymethyl)D[Phe(3-Me)]Y(Carboxymethyl)[Bip][Val(3-OH)][Orn][dL][Dab][Cha]VQC[Dab][Aun]-OH; thioether N-14)
12,10.9,Cc1cccc(C[C@@H]2NC(=O)[C@H](CC(=O)O)NC(=O)[C@H](Cc3ccc(OCC(=O)O)cc3)NC(=O)[C@H](Cc3cncn3C)NC(=O)CSC[C@@H](C(=O)N[C@@H](CCN)C(=O)NCCCCCCCCCCC(=O)O)NC(=O)[C@H](CO)NC(=O)[C@H](C(C)(C)O)NC(=O)[C@H](CC3CCCCC3)NC(=O)[C@H](CCN)NC(=O)[C@@H](CC(C)C)NC(=O)[C@H](CCCN)NC(=O)[C@H](Cc3ccc(OCC(=O)O)cc3)NC(=O)[C@H](Cc3ccc(-c4ccccc4)cc3)NC(=O)[C@H](Cc3ccc(OCC(=O)O)cc3)NC2=O)c1 [Compound 2141] ({CH2CO}-[His(π-Me)]Y(Carboxymethyl)D[Phe(3-Me)]Y(Carboxymethyl)[Bip]Y(Carboxymethyl)[Orn][dL][Dab][Cha][Val(3-OH)]SC[Dab][Aun]-OH; thioether N-14)

# — US20260022142A1, “MACROCYCLIC IMMUNOMODULATORS” (Bristol-Myers Squibb Company, priority 2022, published 2026)
